# Measurements as given in ChEMBL document CHEMBL1147300, “Plant antiviral agents, VI. Isolation of antiviral phenolic glucosides from Populus cultivar Beaupre by droplet counter-current chromatography” (1989).
# Activity calls are given as the source filed them. The calls are words filed in the database; no cut-off is given here.
# Columns and labels:
# Coxsackievirus [1] = test: Antiviral activity against Coxsackievirus infected in african green monkey Vero cells assessed as ratio of viral titer in absence to presence of compound at 5 ug/ml by 50% endpoint titration technique; type: functional
# Human alphaherpesvirus 1 = test: Antiviral activity against Herpes simplex virus type 1 infected in african green monkey Vero cells assessed as ratio of viral titer in absence to presence of compound at 500 ug/ml by 50% endpoint titration technique; type: functional, organism-based
# Measles morbillivirus = test: Antiviral activity against Measles virus infected in african green monkey Vero cells assessed as ratio of viral titer in absence to presence of compound at 500 ug/ml by 50% endpoint titration technique; type: functional, organism-based
# Enterovirus C [2] = test: Antiviral activity against Poliovirus infected in african green monkey Vero cells assessed as ratio of viral titer in absence to presence of compound at 5 ug/ml by 50% endpoint titration technique; type: functional
# Semliki Forest virus [3] = test: Antiviral activity against Semliki forest virus infected in african green monkey Vero cells assessed as ratio of viral titer in absence to presence of compound at 500 ug/ml by 50% endpoint titration technique; type: functional, organism-based
# Coxsackievirus [4] = test: Antiviral activity against Coxsackievirus infected in african green monkey Vero cells assessed as ratio of viral titer in absence to presence of compound at 500 ug/ml by 50% endpoint titration technique; type: functional, organism-based
# Enterovirus C [5] = test: Antiviral activity against Poliovirus infected in african green monkey Vero cells assessed as ratio of viral titer in absence to presence of compound at 25 ug/ml by 50% endpoint titration technique; type: functional
# Microsporum canis = test: Antifungal activity against Microsporum canis at 500 ug/ml; type: functional, organism-based
# [6] = test system: Trichophyton mentagrophytes; test: Antifungal activity against Trichophyton mentagrophytes at 500 ug/ml; type: functional, organism-based
# Trichophyton rubrum = test: Antifungal activity against Trichophyton rubrum at 500 ug/ml; type: functional, organism-based
# Aspergillus niger = test: Antifungal activity against Aspergillus niger at 500 ug/ml; type: functional, organism-based
# Semliki Forest virus [7] = test: Antiviral activity against Semliki forest virus infected in african green monkey Vero cells assessed as ratio of viral titer in absence to presence of compound at 50 ug/ml by 50% endpoint titration technique; type: functional
smiles,measurement,setting,value
COc1c(-c2ccc(O)c(O)c2)oc2cc(O)cc(O)c2c1=O [3-O-METHYLQUERCETIN],Ratio,Coxsackievirus [1],10000000
same,Activity,Human alphaherpesvirus 1,inactive
same,Activity,Measles morbillivirus,inactive
same,Ratio,Enterovirus C [2],100000000
same,Activity,Semliki Forest virus [3],inactive
OCc1ccccc1O[C@@H]1O[C@H](CO)[C@@H](O)[C@H](O)[C@H]1O [SALICIN],Activity,Coxsackievirus [4],inactive
same,Activity,Human alphaherpesvirus 1,inactive
same,Activity,Measles morbillivirus,inactive
same,Activity,Semliki Forest virus [3],inactive
same,Ratio,Enterovirus C [5],1000
same,Activity,Microsporum canis,inactive
same,Activity,[6],inactive
same,Activity,Trichophyton rubrum,inactive
same,Activity,Aspergillus niger,inactive
O=C(OCc1cc(O)ccc1O[C@@H]1O[C@H](CO)[C@@H](O)[C@H](O)[C@H]1O)c1ccccc1 [SALIREPOSIDE],Activity,Coxsackievirus [4],inactive
same,Activity,Human alphaherpesvirus 1,inactive
same,Activity,Measles morbillivirus,inactive
same,Ratio,Semliki Forest virus [7],10000
same,Ratio,Enterovirus C [5],10000
same,Activity,Microsporum canis,inactive
same,Activity,[6],inactive
same,Activity,Trichophyton rubrum,inactive
same,Activity,Aspergillus niger,inactive
